Experimental findings from patent US10577315B2, “Compositions and methods for treatment of prostate carcinoma” (Pellficure Pharmaceuticals, Inc., priority 2014, dated 2020) are described below.

Common to all, as to format: cell-based
For assay [1], the system named is PTEN-P2/GFP prostate cancer cells. Nature of the assay: Effect of 1,4-naphthoquinone analogs on PTEN-P2/GFP cell proliferation (WST-1 cell viability, 24 h). The note with it: Mus musculus, WST-1, medium with 10% FBS and DHT, read-out: PTEN-P2/GFP cell proliferation, percent of control. As to the method:
Cells are grown in phenol red-free DMEM medium containing 10% FBS, 2 mM L-glutamine, 100 U/ml penicillin/100 μg/ml streptomycin, insulin-selenium-transferrin (5 μg/ml insulin), and DHT 10^−8M final. Androgen withdrawal is achieved by not adding DHT to the medium. Cells are maintained in a humidified incubator at 37° C. and 5% CO2. G418 (100 μg/ml) is added to maintain stable expression of H2B-GFP.
(§1) 100 microliters of PTEN-P2/GFP prostate cancer cells were plated at a density of 8000 cells/well in 96-well plates (triplicates) in growing medium containing 10% Fetal Bovine Serum and DHT. The next day, increasing concentrations of a 1,4-naphthoquinone analog (diluted from 10 mM DMSO stock solutions) were added. DMSO used as solvent for all analogs, was kept constant through the 96-well plates. The control consisted of DMSO alone. The cells were subsequently incubated for 24 hours at 37° C. and 5% CO2 in normal cell growth conditions. Cell viability was assessed by adding 9 μL/well of WST-1 reagent (Clontech), which measured mitochondrial activity of live cells. […] The incubation time was 3 hours at 37° C. Optical density of the cell samples was measured at 460 nm, by using plate reader Spectra Max 250 (Molecular Devices). The drug was determined to be cytotoxic when OD values show an inverse correlation with analog concentrations. The results are shown in TABLES 3.1-3.4, FIGS. 2A-2E, and FIGS. 3A-3D.

Assay [2] relates to human fibrosarcoma HT1080 cells. Nature of the assay: Dose response of 1,4-naphthoquinone analogs in human fibrosarcoma cells HT1080 (WST-1, 24 h). As to the method:
as §1, with “human fibrosarcoma HT1080” for “PTEN-P2/GFP prostate cancer”, “Serum, penicillin/streptomycin,” for “Serum”, “glutamine.” for “DHT.”, “concentrations.” for “concentrations. The results are shown in TABLES 3.1-3.4, FIGS. 2A-2E, and FIGS. 3A-3D.”

The subject of assay [3] is human breast cancer SKBR-3 cells. Nature of the assay: Dose response of 1,4-naphthoquinone analogs in human breast cancer cells SKBR-3 (WST-1, 24 h). Here is the method: as §1, with “human breast” for “PTEN-P2/GFP prostate”, “cancer SKBR-3” for “cancer”, “Serum, penicillin/streptomycin,” for “Serum”, “glutamine.” for “DHT.”, “concentrations.” for “concentrations. The results are shown in TABLES 3.1-3.4, FIGS. 2A-2E, and FIGS. 3A-3D.”

As to `O=C1C=C(Oc2ccc(OCc3ccccc3)cc2)C(=O)c2ccccc21` [Analog F06, 2-(4-(benzyloxy)phenoxy)-1,4-naphthoquinone], the activity at 1.2 µM in assay [1] is 99.8%. Also, in assay [1], the activity at 2.5 µM is 99.8%. In assay [1], the activity at 5 µM is 105%. Further, the activity at 7.5 µM in assay [1] stood at 106%. In addition, the activity at 10 µM in assay [1] was 108%. For the same compound, in assay [1], the activity at 15 µM worked out at 99.2%. The activity at 20 µM in assay [1] stood at 79.9%. Moreover, the “proliferation of human fibrosarcoma HT1080 cells, percent of control” value was 82.93% of control in assay [2] (1.2 μM); 81.12% of control in assay [2] (2.5 μM); 80.24% of control in assay [2] (5 μM); 81.24% of control in assay [2] (7.5 μM); 50.19% of control in assay [2] (10 μM); 49.19% of control in assay [2] (15 μM). In addition, in assay [2] (20 μM), the “proliferation of human fibrosarcoma HT1080 cells, percent of control” value is 46.81% of control. The “human SKBR-3 cell proliferation, percent of control” value is 152.32% of control in assay [3] (1.2 μM); 147.42% of control in assay [3] (2.5 μM); 134.16% of control in assay [3] (5 μM); 151.41% of control in assay [3] (7.5 μM); 136.66% of control in assay [3] (10 μM); 125.96% of control in assay [3] (15 μM). Further, the “human SKBR-3 cell proliferation, percent of control” value in assay [3] (20 μM) is on record as 21.95% of control.
For `O=C1C=C(Oc2ccccc2)C(=O)c2ccccc21` [Analog F01, 2-phenoxy-1,4-naphthoquinone], in assay [1], the activity at 2 µM was 91.7%. The activity at 3 µM in assay [1] was found to be 77.9%. The activity at 4 µM in assay [1] came to 63.4%. The activity at 5 µM in assay [1] was 43.1%. In addition, the activity at 6 µM in assay [1] was found to be 30.9%. In addition, the activity at 7 µM in assay [1] is 24.1%. Also, in assay [1], the activity at 10 µM was determined as 13.2%. Also, the activity at 15 µM in assay [1] came to 9.77%. The activity at 25 µM in assay [1] was 9.86%. The “proliferation of human fibrosarcoma HT1080 cells, percent of control” value is 85.21% of control in assay [2] (1.2 μM); 81.88% of control in assay [2] (2.5 μM); 66.22% of control in assay [2] (5 μM); 73.66% of control in assay [2] (7.5 μM); 69.05% of control in assay [2] (10 μM); 41.07% of control in assay [2] (15 μM). Moreover, in assay [2] (20 μM), the “proliferation of human fibrosarcoma HT1080 cells, percent of control” value is on record as 18.29% of control. The “human SKBR-3 cell proliferation, percent of control” value was 99.47% of control in assay [3] (1.2 μM); 105.05% of control in assay [3] (2.5 μM); 85.33% of control in assay [3] (5 μM); 61.15% of control in assay [3] (7.5 μM); 4.30% of control in assay [3] (10 μM); 1.90% of control in assay [3] (15 μM). Further, the “human SKBR-3 cell proliferation, percent of control” value in assay [3] (20 μM) is 2.19% of control.
As for `COc1ccc(OC2=CC(=O)c3ccccc3C2=O)cc1` [Analog F05, 2-(4-methoxyphenoxy)-1,4-naphthoquinone], the activity at 1.2 µM in assay [1] amounted to 102%. Further, in assay [1], the activity at 2.5 µM was 113%. Further, in assay [1], the activity at 5 µM is 56.1%. The activity at 7.5 µM in assay [1] amounted to 8.83%. For the same compound, in assay [1], the activity at 10 µM stood at 1.32%. In assay [1], the activity at 15 µM came out at 0.77%. Also, in assay [1], the activity at 20 µM was found to be 3.41%. The “proliferation of human fibrosarcoma HT1080 cells, percent of control” value in assay [2] (1.2 μM) was 81.04% of control; in assay [2] (2.5 μM), 76.27% of control; in assay [2] (5 μM), 67.81% of control; in assay [2] (7.5 μM) it was 67.85% of control; in assay [2] (10 μM), 66.08% of control; in assay [2] (15 μM) it was 55.00% of control. Moreover, the “proliferation of human fibrosarcoma HT1080 cells, percent of control” value in assay [2] (20 μM) is 56.04% of control. For the same compound, the “human SKBR-3 cell proliferation, percent of control” value in assay [3] (1.2 μM) was 151.35% of control; in assay [3] (2.5 μM), 144.41% of control; in assay [3] (5 μM), 120.15% of control; in assay [3] (7.5 μM), 94.14% of control; in assay [3] (10 μM), 17.05% of control; in assay [3] (15 μM) it was 1.91% of control. Also, the “human SKBR-3 cell proliferation, percent of control” value in assay [3] (20 μM) is recorded as 2.99% of control.
Turning to `COC(=O)CSC1=C(C)C(=O)c2cccc(O)c2C1=O` [Analog F46, Methyl 2-((8-hydroxy-3-methyl-1,4-dioxo-1,4-dihydronaphthalen-2-yl)thio)acetate], the activity at 1 µM in assay [1] (1 μM) was 95.4%. Besides, in assay [1], the activity at 2 µM came to 90.6%, the activity at 3 µM is 84.9%, the activity at 4 µM turned out to be 75% and the activity at 5 µM was 66.1%. In addition, in assay [1], the activity at 6 µM came to 60.6%, the activity at 7 µM worked out at 54.7%, the activity at 10 µM is 33% and the activity at 25 µM stood at 13%. Moreover, the activity at 50 µM in assay [1] (50 μM) was 13.6%.
In the case of `CN(C)CCc1ccc(OC2=CC(=O)c3ccccc3C2=O)cc1` [Analog F11, 2-(4-(2-dimethylaminoethyl)phenoxy)-1,4-naphthoquinone], in assay [1], the activity at 2 µM was determined as 99.6%, the activity at 3 µM worked out at 93.4%, the activity at 4 µM amounted to 79.2% and the activity at 5 µM is 61.3%. In addition, in assay [1], the activity at 6 µM turned out to be 46%, the activity at 7 µM came to 36.4%, the activity at 10 µM came out at 22.8% and the activity at 15 µM was 12.3%. Also, the activity at 25 µM in assay [1] was determined as 9.33%.
